These results are taken from patent publication US10208074B2, “Pyrazole compounds and method for making and using the compounds” (Rigel Pharmaceuticals, Inc., priority 2015, dated 2019).

Where a name gives a salt, the structure may show the parent alone. Read-outs that look alike come from different tables or passages of the source.

One assay concerns IL-23 (p19/p40). Kind of assay: IL23-p19 ELISA, Dendritic, LPS (compound screening using DC cells). Format: cell-based, Human. The procedure, abridged:
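IL-23 in supernatants quantified by sandwich ELISA (anti-p19 capture, biotinylated anti-p40 detection, chemiluminescent readout) after 18 h LPS (1 μg/ml) stimulation. Cells were monocyte-derived DCs (GM-CSF/IL-4, 7 d), IFNγ-primed 24 h and given compound 1 h before LPS; viability by CellTiter Glo.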

The subject of the next assay is IL-23p19. The assay is described as follows: LPS induced IL23p19 in THP-1 cells (with IFNγ primed) assay. Format: cell-based, Human. The procedure, abridged:
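Readout is secreted IL-23p19, quantified by chemiluminescent sandwich ELISA after 18 h LPS (1 ug/mL) stimulation of THP-1 cells that had been IFNγ-primed (50 ng/mL, ~18 h) and given compound 1 h beforehand at 37 °C. EC50 derived by curve fit; cytotoxicity tracked with Cell Titer Glo.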

The mark [1] stands for this setting: Homo sapiens, 18 h, PBMC-derived DC cells, IFNγ primed, LPS 1 μg/ml, 18 hours, 10 pt, read-out: IL23-p19 ELISA, Dendritic, LPS, 10 pt, EC50.
Where [2] appears, read: Homo sapiens, THP-1, 18 h, THP-1 cells, IFNγ primed, LPS 1 ug/mL, 18 hours, 10 pt, read-out: IL23-p19 ELISA, THP1-IFNy, LPS, 10 pt EC50.
Where [3] appears, read: PBMC-derived DC cells, IFNγ primed, LPS 1 μg/ml, 18 hours, 10 pt, read-out: IL23-p19 ELISA, Dendritic, LPS, 10 pt, EC50.
[4] abbreviates: THP-1 cells, IFNγ primed, LPS 1 ug/mL, 18 hours, 10 pt, read-out: IL23-p19 ELISA, THP1-IFNy, LPS, 10 pt EC50.
The mark [5] stands for this setting: THP-1 cells, IFNγ primed, LPS 1 ug/mL, 18 hours, 10 pt, formate, read-out: IL23-p19 ELISA, THP1-IFNy, LPS, 10 pt EC50.

Consider `CC(C)n1cc(NC(=O)c2ccc(-c3cn[nH]c3)o2)c(-c2ccccn2)n1` [Compound I-110, N-(1-isopropyl-3-(pyridin-2-yl)-1H-pyrazol-4-yl)-5-(1H-pyrazol-4-yl)furan-2-carboxamide], for which the EC50 in the assay with IL-23 (p19/p40) (setting [1]) came out at 0.388 µM; in the assay with IL-23p19 (setting [2]), 0.279 µM.

As to `CCO[C@H]1C[C@@H](n2cc(NC(=O)c3ccc(-c4c[nH]nc4C)o3)c(-c3ccccn3)n2)C1` [Compound I-29, N-(1-((1,3-cis)-3-ethoxycyclobutyl)-3-(pyridin-2-yl)-1H-pyrazol-4-yl)-5-(3-methyl-1H-pyrazol-4-yl)furan-2-carboxamide], the EC50 in the assay with IL-23 (p19/p40) (setting [1]) worked out at 0.0972 µM; in the assay with IL-23p19 (setting [2]), 0.206 µM.

Regarding `CCOCCn1cc(NC(=O)c2csc(-c3cn[nH]c3)n2)c(-c2ccccn2)n1` [II-25, N-(1-(2-ethoxyethyl)-3-(pyridin-2-yl)-1H-pyrazol-4-yl)-2-(1H-pyrazol-4-yl)thiazole-4-carboxamide], the EC50 with IL-23 (p19/p40) (setting [3]) is 0.17 µM; with IL-23p19 (setting [4]) it was 0.146 µM.

Take `CCOCCn1cc(NC(=O)c2csc(-c3cn[nH]c3)n2)c(-c2ccccn2)n1` [II-18, N-(1-(2-ethoxyethyl)-3-(pyridin-2-yl)-1H-pyrazol-4-yl)-2-(1H-pyrazol-4-yl)thiazole-4-carboxamide, formic acid salt]: the EC50 with IL-23 (p19/p40) (PBMC-derived DC cells, IFNγ primed, LPS 1 μg/ml, 18 hours, 10 pt, formic acid salt, read-out: IL23-p19 ELISA, Dendritic, LPS, 10 pt, EC50) is 0.0314 µM; in the assay on IL-23p19 (THP-1 cells, IFNγ primed, LPS 1 ug/mL, 18 hours, 10 pt, formic acid salt, read-out: IL23-p19 ELISA, THP1-IFNy, LPS, 10 pt EC50), 0.301 µM.

`O=C(Nc1cn(C2CCOCC2)nc1-c1nccs1)c1ccc(-c2cn[nH]c2)o1` [Compound I-60, 5-(1H-pyrazol-4-yl)-N-(1-(tetrahydro-2H-pyran-4-yl)-3-(thiazol-2-yl)-1H-pyrazol-4-yl)furan-2-carboxamide formate]: the EC50 in the assay on IL-23 (p19/p40) (PBMC-derived DC cells, IFNγ primed, LPS 1 μg/ml, 18 hours, 10 pt, formate, read-out: IL23-p19 ELISA, Dendritic, LPS, 10 pt, EC50) amounted to 0.0338 µM; in the assay on IL-23p19 (setting [5]) it was 0.175 µM.

In the case of `O=C(Nc1cn(C2CCC2)nc1-c1ccccn1)c1csc(-c2cn[nH]c2)n1` [II-121, N-(1-cyclobutyl-3-(pyridin-2-yl)-1H-pyrazol-4-yl)-2-(1H-pyrazol-4-yl)thiazole-4-carboxamide], the values for the EC50 in the assay on IL-23 (p19/p40) (setting [1]) and in the assay with IL-23p19 (setting [2]) were 0.0444 µM and 0.0986 µM, respectively.

`O=C(Nc1cn(C(=O)N2CCOCC2)nc1-c1ccccn1)c1csc(-c2cn[nH]c2)n1` [II-131, N-(1-(morpholine-4-carbonyl)-3-(pyridin-2-yl)-1H-pyrazol-4-yl)-2-(1H-pyrazol-4-yl)thiazole-4-carboxamide formate]: the EC50 was found to be 9.36 µM with IL-23 (p19/p40) (setting [1]) and 0.36 µM in the assay on IL-23p19 (setting [5]).

For the compound `Cn1cc(NC(=O)c2ccc(-c3cnn(COP(=O)(O)O)c3)o2)c(-c2ccccn2)n1` [Compound I-81, [4-{5-((1-Methyl-3-(pyridine-2-yl)-1H-pyrazol-4-yl)carbamoyl)furan-2yl}-1H-pyrazol-1-yl]methyl dihydrogen phosphate], the EC50 came out at 0.96 µM with IL-23 (p19/p40) (setting [1]) and 0.153 µM with IL-23p19 (setting [2]).

As for `COCCn1cc(NC(=O)c2csc(-c3c[nH]nc3C)n2)c(-c2ccccn2)n1` [II-29, N-(1-(2-methoxyethyl)-3-(pyridin-2-yl)-1H-pyrazol-4-yl)-2-(3-methyl-1H-pyrazol-4-yl)thiazole-4-carboxamide, formic acid salt], the EC50 in the assay with IL-23 (p19/p40) (setting [1]) was 0.248 µM; in the assay with IL-23p19 (setting [2]), 0.135 µM.

In the case of `CCOCCn1cc(NC(=O)c2ccc(-c3cn[nH]c3)o2)c(-c2nccs2)n1` [Compound I-119, N-(1-(2-ethoxyethyl)-3-(thiazol-2-yl)-1H-pyrazol-4-yl)-5-(1H-pyrazol-4-yl)furan-2-carboxamide], the results for the EC50 in the assay with IL-23 (p19/p40) (setting [3]) and in the assay on IL-23p19 (setting [4]) were 0.43 µM and 0.153 µM, respectively.

As to `CN(C)[C@H]1C[C@@H](n2cc(NC(=O)c3csc(-c4cn[nH]c4)n3)c(-c3ccccn3)n2)C1` [II-15, N-(1-((1s,3s)-3-(dimethylamino)cyclobutyl)-3-(pyridin-2-yl)-1H-pyrazol-4-yl)-2-(1H-pyrazol-4-yl)thiazole-4-carboxamide], the EC50 in the assay on IL-23 (p19/p40) (setting [1]) is 0.0096 µM; in the assay with IL-23p19 (setting [2]), 0.0064 µM.

For `COCCOCCn1cc(NC(=O)c2csc(-c3c[nH]nc3C)n2)c(-c2ccccn2)n1` [II-39, N-(1-(2-(2-methoxyethoxy)ethyl)-3-(pyridin-2-yl)-1H-pyrazol-4-yl)-2-(3-methyl-1H-pyrazol-4-yl)thiazole-4-carboxamide], the 50% effective concentration (EC50) in the assay with IL-23 (p19/p40) (setting [1]) stood at 0.178 µM; in the assay with IL-23p19 (setting [2]) it was 0.167 µM.

For the compound `CCO[C@H]1C[C@@H](n2cc(NC(=O)c3csc(-c4cnn(COP(=O)(O)O)c4)n3)c(-c3ccccn3)n2)C1` [II-80, (4-(4-((1-((1,3-cis)-3-ethoxycyclobutyl)-3-(pyridin-2-yl)-1H-pyrazol-4-yl)carbamoyl)thiazol-2-yl)-1H-pyrazol-1-yl)methyl phosphate bis-ammonium salt], the EC50 with IL-23 (p19/p40) (PBMC-derived DC cells, IFNγ primed, LPS 1 μg/ml, 18 hours, 10 pt, phosphate bis-ammonium salt, read-out: IL23-p19 ELISA, Dendritic, LPS, 10 pt, EC50) turned out to be 0.247 µM; in the assay with IL-23p19 (THP-1 cells, IFNγ primed, LPS 1 ug/mL, 18 hours, 10 pt, phosphate bis-ammonium salt, read-out: IL23-p19 ELISA, THP1-IFNy, LPS, 10 pt EC50), 0.0495 µM.

For `CCO[C@H]1C[C@@H](n2cc(NC(=O)c3csc(-c4cnn(COP(=O)(O)O)c4)n3)c(-c3ccccn3)n2)C1` [II-82, (4-(4-((1-((1,3-cis)-3-ethoxycyclobutyl)-3-(pyridin-2-yl)-1H-pyrazol-4-yl)carbamoyl)thiazol-2-yl)-1H-pyrazol-1-yl)methyl phosphate bis-arginine salt], the EC50 came to 0.176 µM with IL-23 (p19/p40) (Homo sapiens, 18 h, read-out: IL23-p19 ELISA, Dendritic, LPS, 10 pt, EC50 (μM)) and 0.0387 µM in the assay with IL-23p19 (Homo sapiens, THP-1, 18 h, read-out: IL23-p19 ELISA, THP1-IFNy, LPS, 10 pt EC50 (μM)).

Consider `O=C(Nc1cn(CCO)nc1-c1ncccn1)c1ccc(-c2cn[nH]c2)o1` [Compound I-15, N-(1-(2-hydroxyethyl)-3-(pyrimidin-2-yl)-1H-pyrazol-4-yl)-5-(1H-pyrazol-4-yl)furan-2-carboxamide], for which the EC50 in the assay with IL-23 (p19/p40) (setting [1]) came to 2.2 µM; with IL-23p19 (setting [2]) it was 2.23 µM.

Take `CCO[C@H]1C[C@@H](n2cc(NC(=O)c3ccc(-c4cn[nH]c4)o3)c(-c3nc(F)ccc3F)n2)C1` [Compound I-156, N-(3-(3,6-difluoropyridin-2-yl)-1-((1s,3s)-3-ethoxycyclobutyl)-1H-pyrazol-4-yl)-5-(1H-pyrazol-4-yl)furan-2-carboxamide]: the EC50 with IL-23 (p19/p40) (setting [1]) worked out at 0.105 µM; in the assay on IL-23p19 (setting [2]), 0.0595 µM.

Take `CCO[C@H]1C[C@@H](n2cc(NC(=O)c3csc(-c4cn[nH]c4)n3)c(-c3ccc(F)cn3)n2)C1` [II-153, N-(1-((cis)-3-ethoxycyclobutyl)-3-(5-fluoropyridin-2-yl)-1H-pyrazol-4-yl)-2-(1H-pyrazol-4-yl)thiazole-4-carboxamide]: the results for the EC50 in the assay on IL-23 (p19/p40) (setting [1]) and with IL-23p19 (setting [2]) were 0.141 µM and 0.749 µM, respectively.

On to `O=C(Nc1cn([C@H]2CC[C@H](NCC(F)F)CC2)nc1-c1ncccn1)c1csc(-c2cn[nH]c2)n1` [II-179, N-(1-((1r,4r)-4-((2,2-difluoroethyl)amino)cyclohexyl)-3-(pyrimidin-2-yl)-1H-pyrazol-4-yl)-2-(1H-pyrazol-4-yl)thiazole-4-carboxamide], for which the EC50 was determined as 0.0748 µM with IL-23 (p19/p40) (setting [1]) and 0.0125 µM in the assay with IL-23p19 (setting [2]).

For the compound `O=C(Nc1cn(CCOCC(F)(F)F)nc1-c1ccccn1)c1csc(-c2cc[nH]n2)n1` [II-66, 2-(1H-pyrazol-3-yl)-N-(3-(pyridin-2-yl)-1-(2-(2,2,2-trifluoroethoxy)ethyl)-1H-pyrazol-4-yl)thiazole-4-carboxamide], the EC50 is 0.244 µM with IL-23 (p19/p40) (setting [1]) and 0.106 µM with IL-23p19 (setting [2]).

Consider `CC(C)C(=O)N1CC(n2cc(NC(=O)c3ccc(-c4cn[nH]c4)o3)c(-c3ccccn3)n2)C1` [Compound I-95, N-[1-{1-Isobutyrylazetidin-3-yl}-3-(pyridine-2-yl)-1H-pyrazol-4-yl]-5-(1H-pyrazol-4-yl)furan-2-carboxamide, formate salt], for which the EC50 stood at 0.0338 µM in the assay on IL-23 (p19/p40) (setting [1]) and 0.0678 µM in the assay on IL-23p19 (setting [2]).
